Reference: the RepoRT retention time repository

Experiment: HILIC, Waters ACQUITY UPLC BEH Amide, 100 × 2.1 mm, 1.7 µm; A: water + 0.125% formic acid + 10 mM ammonium formate; B: 5% water + 95% acetonitrile + 0.125% formic acid + 10 mM ammonium formate; gradient (min/%B) 0/100 2/100 7.7/70 9.5/40 10.25/30 12.75/100 17/100
Details: stereoisomer not certain

Structure (SMILES): CCC(C)n1ncn(-c2ccc(N3CCN(c4ccc(OCC5COC(Cn6cncn6)(c6ccc(Cl)cc6Cl)O5)cc4)CC3)cc2)c1=O (configuration not stated) [Itraconzaole]
- LC retention time: 0.97 min

Structure (SMILES): NCCCCCN [Cadaverine]
- LC retention time: 8.99 min

Structure (SMILES): Nc1ncnc2c1ncn2C1CC2OP(=O)(O)OCC2O1 (configuration not stated) [3',5'-Cyclic dAMP]
- LC retention time: 7.29 min

Structure (SMILES): Cc1cc2nc3c(=O)[nH]c(=O)nc-3n(CC(O)C(O)C(O)COP(=O)(O)OP(=O)(O)OCC3OC(n4cnc5c(N)ncnc54)C(O)C3O)c2cc1C (configuration not stated)
- LC retention time: 9.52 min

Structure (SMILES): CNCC(=O)O [Sarcosine]
- LC retention time: 7.82 min

Structure (SMILES): CC(C)CCCC(C)C1CCC2C3CC=C4CC(OC(=O)NCCN(C)C)CCC4(C)C3CCC12C (stereo not drawn) [3-beta-Cholest-5-en-3-yl [2-(dimethylamino)ethyl]carbamate]
- LC retention time: 2.34 min

Structure (SMILES): O=C(O)CCCCCCC(O)CC(=O)O (configuration not stated) [3-Hydroxysebacic acid]
- LC retention time: 2.55 min

Structure (SMILES): Cn1cnc(C[C@H](N)C(=O)O)c1 [1-Methyl-L-histidine]
- LC retention time: 9.1 min

Structure (SMILES): COc1ccc2[nH]cc(CCNC(C)=O)c2c1 [Melatonin]
- LC retention time: 1.24 min

Structure (SMILES): NC(Cc1cnc[nH]1)C(=O)O (configuration not stated) [Histidine]
- LC retention time: 9.48 min

Structure (SMILES): O=C(O)CNC(=O)C=Cc1ccccc1 [N-Cinnamoylglycine]
- LC retention time: 2.95 min

Structure (SMILES): NC(CS(=O)(=O)O)C(=O)O (configuration not stated) [Cysteic acid]
- LC retention time: 8.92 min

Structure (SMILES): NC(CO)C(=O)NC(Cc1ccc(O)cc1)C(=O)O (configuration not stated) [Ser-Tyr]
- LC retention time: 8.44 min

Structure (SMILES): COc1cc(-c2oc3cc(O)cc(O)c3c(=O)c2OC2OC(CO)C(O)C(O)C2O)cc(OC)c1O (configuration not stated) [Syringetin-3-O-glucoside]
- LC retention time: 4.32 min

Structure (SMILES): NCCc1cnc[nH]1 [Histamine]
- LC retention time: 8.29 min

Structure (SMILES): c1ccc2c3c([nH]c2c1)CNCC3 [Tryptoline]
- LC retention time: 4.9 min

Structure (SMILES): CC(C)C(N)C(=O)OCCOCn1cnc2c(=O)[nH]c(N)nc21 (configuration not stated) [Valaciclovir]
- LC retention time: 6.83 min

Structure (SMILES): Cn1c(N)nc2c(ncn2C2OC(CO)C(O)C2O)c1=O (configuration not stated) [1-Methylguanosine]
- LC retention time: 5.84 min

Structure (SMILES): Cn1c(=O)c2c([nH]c(=O)n2C)n(C)c1=O [1,3,7-Trimethyluric acid]
- LC retention time: 1.83 min

Structure (SMILES): CCCc1nc(C)c2c(=O)[nH]c(-c3cc(S(=O)(=O)N4CCN(CC)CC4)ccc3OCC)nn12 [Vardenafil]
- LC retention time: 1.7 min

Structure (SMILES): OCC1OC(Oc2cc(O)cc(C=Cc3ccc(O)cc3)c2)C(O)C(O)C1O (stereo not drawn) [trans-Piceid]
- LC retention time: 4.64 min

Structure (SMILES): Cc1cn(C2OC(CO)CC2O)c(=O)[nH]c1=O (configuration not stated) [5-Methyl-3-deoxyuridine]
- LC retention time: 2.6 min

Structure (SMILES): Cc1ncsc1CCO [4-Methyl-5-thiazoleethanol]
- LC retention time: 1.21 min

Structure (SMILES): CN(C)c1nc2c(ncn2C2OC(CO)C(O)C2O)c(=O)[nH]1 (configuration not stated) [N2,N2-Dimethylguanosine]
- LC retention time: 5.62 min

Structure (SMILES): CC(C)(C)NC(=O)C1CCC2C3CCC4NC(=O)C=CC4(C)C3CCC12C (configuration not stated) [Finasteride]
- LC retention time: 1.17 min

Structure (SMILES): Nc1nc2ccc(Cl)cc2c2nc(-c3ccco3)nn12
- LC retention time: 1.07 min

Structure (SMILES): O=P(O)(O)OC1OC(CO)C(O)C(O)C1O (configuration not stated) [Glucose-1-phosphate]
- LC retention time: 9.61 min

Structure (SMILES): Nc1ccc2cn[nH]c2c1 [6-Aminoindazole]
- LC retention time: 1.26 min

Structure (SMILES): Oc1cc(O)c2c(c1)OC(c1cc(O)c(O)c(O)c1)C(O)C2 (configuration not stated) [Epigallocatechin]
- LC retention time: 10.2 min

Structure (SMILES): CC(C)CC(=O)NCC(=O)O [N-Isovalerylglycine]
- LC retention time: 2.94 min

Structure (SMILES): CN1C2CCC1C(C(=O)O)C(OC(=O)c1ccccc1)C2 (configuration not stated) [Benzoylecgonine]
- LC retention time: 3.63 min

Structure (SMILES): CC(C)OC(=O)CCCC=CCC1C(O)CC(O)C1CCC(O)CCc1ccccc1 (configuration not stated) [Latanoprost]
- LC retention time: 1.06 min

Structure (SMILES): Nc1nc2c(ncn2C2OC3COP(=O)(O)OC3C2O)c(=O)[nH]1 (configuration not stated) [Guanosine-3',5'-cyclic monophosphate]
- LC retention time: 8.39 min

Structure (SMILES): Nc1ncnc2nc[nH]c12 [Adenine]
- LC retention time: 4.71 min

Structure (SMILES): O=c1cc[nH]c(=O)[nH]1 [Uracil]
- LC retention time: 2.4 min

Structure (SMILES): NCC(O)c1ccccc1 (configuration not stated) [Phenylethanolamine]
- LC retention time: 5.51 min

Structure (SMILES): CCC(=O)NCC(=O)O [2-Propanamidoacetic acid]
- LC retention time: 5.37 min

Structure (SMILES): Cc1ccccc1-n1c(C)nc2ccccc2c1=O [Methaqualone]
- LC retention time: 1.1 min

Structure (SMILES): CCOC(=O)COc1cc(-c2nn(C)c(OC(F)F)c2Cl)c(F)cc1Cl [Pyrafluefen-ethyl]
- LC retention time: 1.02 min

Structure (SMILES): O=C(O)CCc1c[nH]c2ccccc12 [3-Indolepropionic acid]
- LC retention time: 1.28 min

Structure (SMILES): O=C(O)C1CCC(C(=O)O)CC1 (configuration not stated) [1,4-Cyclohexanedicarboxylic acid]
- LC retention time: 1.56 min

Structure (SMILES): O=c1[nH]cnc2nc[nH]c12 [Hypoxanthine]
- LC retention time: 4.99 min

Structure (SMILES): Nc1ncnc2c1[nH]c(=O)n2C1CC(O)C(CO)O1 (configuration not stated) [8-Oxo-2-deoxyadenosine]
- LC retention time: 5.11 min

Structure (SMILES): CS(=O)(=O)c1ccc(C2=C(c3ccccc3)C(=O)OC2)cc1 [Rofecoxib]
- LC retention time: 0.97 min

Structure (SMILES): COc1cc(C=CC=O)ccc1O [Coniferylaldehyde]
- LC retention time: 1.14 min

Structure (SMILES): CCC(=O)NS(=O)(=O)c1ccc(-c2c(-c3ccccc3)noc2C)cc1 [Parecoxib]
- LC retention time: 0.98 min

Structure (SMILES): CCN1CCCC1CNC(=O)c1cc(S(N)(=O)=O)ccc1OC (configuration not stated) [Levosulpiride]
- LC retention time: 4.37 min

Structure (SMILES): NC(CCC(=O)O)C(=O)O (configuration not stated) [Glutamic acid]
- LC retention time: 8.85 min

Structure (SMILES): CCCCCCCCCOc1ccc2[nH]cc(CCN)c2c1 [5-Nonyloxytryptamine]
- LC retention time: 3.4 min

Structure (SMILES): CC(C)CC(NC(=O)C(O)C(N)Cc1ccccc1)C(=O)O (configuration not stated) [Bestatin]
- LC retention time: 5.98 min

Structure (SMILES): CC(=O)OCC(=O)NCCCOc1cccc(CN2CCCCC2)c1 [Roxane]
- LC retention time: 3.01 min

Structure (SMILES): c1ccc(Cn2ccnc2)cc1 [1-Benzylimidazole]
- LC retention time: 1.63 min

Structure (SMILES): NC(CC(=O)O)c1ccc(O)cc1 (configuration not stated) [3-Amino-3-(4-hydroxyphenyl)propionic acid]
- LC retention time: 7.42 min

Structure (SMILES): CC(C)C(N)C(=O)O (configuration not stated) [Valine]
- LC retention time: 7.24 min

Structure (SMILES): CC(N)C(=O)NC(C)C(=O)O (configuration not stated) [Ala-Ala]
- LC retention time: 8.41 min

Structure (SMILES): CN(C)C(=N)N=C(N)N [Metformin]
- LC retention time: 5.44 min

Structure (SMILES): O=C1CC(c2ccc(O)cc2)Oc2cc(O)ccc21 (configuration not stated) [Liquiritigenin]
- LC retention time: 1.3 min

Structure (SMILES): O=C1CCCCC1=O [1,2-Cyclohexanedione]
- LC retention time: 5.77 min

Structure (SMILES): N=c1ccc2nc3ccc(N)cc3sc-2c1 [Thionin]
- LC retention time: 5.23 min

Structure (SMILES): COc1cc(C(=O)NS(=O)(=O)c2ccccc2C)ccc1Cc1cn(C)c2ccc(NC(=O)OC3CCCC3)cc12 [Zafirlukast]
- LC retention time: 1 min

Structure (SMILES): CCOC(=O)C(CCc1ccccc1)NC1CCc2ccccc2N(CC(=O)O)C1=O (configuration not stated) [Benazepril]
- LC retention time: 1.33 min

Structure (SMILES): Oc1cc(O)cc(O)c1 [Phloroglucinol]
- LC retention time: 1.15 min

Structure (SMILES): CCc1c2c(nc3ccc(OC(=O)N4CCC(N5CCCCC5)CC4)cc13)-c1cc3c(c(=O)n1C2)COC(=O)C3(O)CC (configuration not stated) [Irinotecan]
- LC retention time: 5.03 min

Structure (SMILES): Nc1nc(Cl)nc2c1ncn2C1OC(CO)C(O)C1O (configuration not stated) [2-Chloroadenosine]
- LC retention time: 2.69 min

Structure (SMILES): COc1cc(CNC(=O)CCCCC=CC(C)C)ccc1O [Capsaicin]
- LC retention time: 1 min

Structure (SMILES): CCCCCCCCCCCCCC(=O)OC(CO)CO [2-Myristoylglycerol]
- LC retention time: 1.01 min

Structure (SMILES): CC(OP(=O)(O)O)C(N)C(=O)O (configuration not stated) [o-Phosphothreonine]
- LC retention time: 9.74 min

Structure (SMILES): [NH3+]CC(=O)N1CCCC1C(=O)[O-] (configuration not stated) [Gly-Pro]
- LC retention time: 8.62 min

Structure (SMILES): O=C(O)c1ccc[nH]1 [Pyrrole-2-carboxylic acid]
- LC retention time: 5.66 min

Structure (SMILES): C[N+](C)(C)CC(=O)[O-] [Betaine]
- LC retention time: 7.24 min

Structure (SMILES): O=C1OC(CO)C(O)C(O)C1O (configuration not stated) [Gluconolactone]
- LC retention time: 8.15 min

Structure (SMILES): CC(C)CC(O)C(=O)O (configuration not stated) [2-Hydroxy-4-methylpentanoic acid]
- LC retention time: 1.57 min

Structure (SMILES): CCCCc1oc2ccccc2c1C(=O)c1cc(I)c(OCCN(CC)CC)c(I)c1 [Amiodarone]
- LC retention time: 1.87 min

Structure (SMILES): O=C(O)CNC(=O)OCc1ccccc1 [N-Benzyloxycarbonylglycine]
- LC retention time: 7.67 min

Structure (SMILES): COC1C(O)C(CO)OC1n1cc(C)c(N)nc1=O (configuration not stated) [2'-O-Methyl-5-methylcytidine]
- LC retention time: 4.93 min

Structure (SMILES): O=C(CCCN1CCC(O)(c2ccc(Cl)cc2)CC1)c1ccc(F)cc1 [Haloperidol]
- LC retention time: 2.31 min

Structure (SMILES): CC12CC3CC(C)(C1)CC(N)(C3)C2 [Memantine]
- LC retention time: 4.24 min

Structure (SMILES): CCN1CC(CCN2CCOCC2)C(c2ccccc2)(c2ccccc2)C1=O (configuration not stated) [Doxapram]
- LC retention time: 1.64 min

Structure (SMILES): CC(C)Oc1ccc2c(=O)c(-c3ccccc3)coc2c1 [Ipriflavone]
- LC retention time: 0.94 min

Structure (SMILES): NC(CCS)C(=O)O (configuration not stated) [Homocysteine]
- LC retention time: 9.58 min

Structure (SMILES): NC(CCO)C(=O)O (configuration not stated) [Homoserine]
- LC retention time: 8.29 min

Structure (SMILES): O=C1CN=C(c2ccccc2)c2cc(Cl)ccc2N1CC1CC1 [Prazepam]
- LC retention time: 1.07 min

Structure (SMILES): CN(C)C(N)=NCCCC(N)C(=O)O (configuration not stated) [ADMA]
- LC retention time: 8.55 min

Structure (SMILES): CN1C(=O)COc2c(C(=O)NC3CN4CCC3CC4)cc(Cl)cc21 (configuration not stated) [Azasetron]
- LC retention time: 4.66 min

Structure (SMILES): NCCCC(N)C(=O)O (configuration not stated) [Ornithine]
- LC retention time: 9.6 min

Structure (SMILES): CC(C(=O)O)c1ccc(CC2CCCC2=O)cc1 (configuration not stated) [Loxoprofen]
- LC retention time: 1.09 min

Structure (SMILES): CC(C)C(=O)O [Isobutyric acid]
- LC retention time: 1.77 min

Structure (SMILES): Nc1ccc(O)c(C(=O)O)c1
- LC retention time: 3.89 min

Structure (SMILES): NC(=O)CCC(NC(=O)C1CCCN1)C(=O)O (configuration not stated) [Pro-Gln]
- LC retention time: 8.75 min

Structure (SMILES): CC(CN(C)C)CN1c2ccccc2CCc2ccccc21 (configuration not stated) [Trimipramine]
- LC retention time: 2.25 min

Structure (SMILES): CNCCC(Oc1cccc2ccccc12)c1cccs1 (configuration not stated) [Duloxetine]
- LC retention time: 2.6 min

Structure (SMILES): CC(=O)Nc1ccn(C2OC(CO)C(O)C2O)c(=O)n1 (configuration not stated) [N-Acetylcytidine]
- LC retention time: 5.08 min
